Like-named read-outs stand apart in the source and are kept apart here.
Key:
[1] = test system: scopolamine-treated mice; assay: Object recognition (OR) test of episodic memory in scopolamine-treated mice; settings: for recognition index (RI): scopolamine 1 mg/kg 30 minutes before acquisition, 3 hours inter-trial interval
[2] = test system: normal mice; assay: Object recognition (OR) test of episodic memory in normal mice; assay type: in vivo; settings: for minimal effective dose: Mus musculus, po
[3] = test system: tau phosphorylation; assay: Inhibitory activity on tau phosphorylation in vivo (pS396 Western blot of cortex); set-up: species or system male CD-1 mice; settings: 10 mg/kg p.o., cortex removed after 1 hour, pS396 antibody; ** means statistically significant
Procedure: Experiment 7 : Inhibitory activity on tau phosphorylation in vivo
Test compound was administrated to male CD-1 mice of 5-6 weeks weighing 25-35 g (Charles River Japan, inc.) at 10 mg/kg p.o. (0.5% polyethylene glycol sorbitan monolaurate 80 (Tween80)/water suspension) and after 1 hour, mice were decapitated and cortex was promptly removed, followed by being frozen in liquid nitrogen. […] Protein concentrations were determined using DC protein assay kit (BIO-RAD). Supernatants were diluted with sample buffer (62.5 mM Tris-HCl, 25% glycerol, 2% SDS, 0.01% Bromophenol Blue, pH 6.8) to adjust the protein concentrations around […] and then boiled for 5 minutes. Samples (10 µ g) were separated on 10% sodium dodecyl sulfate-polyacrylamide electrophoresis (SDS-PAGE) mini slab gels and transferred onto polyvinylidene difluoride (PVDF) membranes. Membranes were incubated with phosphate buffered saline (PBS) containing 5% non-fat milk for 1 hour at room temperature and then probed with pS396 anti-body (BIOSOURCE) over night at 4 °C. Anti-rabbit IgG horseradish peroxidase (HRP) conjugated antibody (Promega) was used as secondary antibody. Membranes were visualized by Enhanced ChemiLuminescence (ECL) kit (Amersham Bioscience) and detected by LAS 1000 (Fuji Photo Film).

With `Cc1nc(-c2ccc([C@H]3CN(c4nc(-c5ccncn5)cc(=O)n4C)CCO3)cc2)no1` [Compound of the present invention] the minimal effective dose ([1]; Mus musculus, po, read-out: Minimal Effective Dose, prevention of episodic memory deficits) was 10 mg/kg, the “recognition index (RI)” value ([1]; 10 mg/kg p.o. 1 hour before acquisition) was 52.7% and the “recognition index (RI)” value ([1]; 30 mg/kg p.o. 1 hour before acquisition) was 60.4%. The “effect on episodic memory deficits induced by scopolamine” value ([1]; single oral administration 3mg/kg) was “ineffective”, the “effect on episodic memory deficits induced by scopolamine” value ([1]; single oral administration 10 mg/kg, 30 minutes before scopolamine, 1 hour before acquisition) was “totally reversed” and the “recognition index (RI)” value ([2]; 1 mg/kg p.o. 1 hour before acquisition and retention sessions, 24 hours inter-trial interval) was 50.3%. For the same compound, the “recognition index (RI)” value ([2]; 3 mg/kg p.o. 1 hour before acquisition and retention sessions, 24 hours inter-trial interval) was 52.6%, the “recognition index (RI)” value ([2]; 3 mg/kg p.o. once immediately after the acquisition phase, 24 hours inter-trial interval) was 54.6% and the “recognition index (RI)” value ([2]; 10 mg/kg p.o. 1 hour before acquisition and retention sessions, 24 hours inter-trial interval) was 60.4%. The “recognition index (RI)” value ([2]; 10 mg/kg p.o. once immediately after the acquisition phase, 24 hours inter-trial interval) was 58.6%, the “recognition index (RI)” value ([2]; 30 mg/kg p.o. 1 hour before acquisition and retention sessions, 24 hours inter-trial interval) was 62.9% and the “recognition index (RI)” value ([2]; 30 mg/kg p.o. once immediately after the acquisition phase, 24 hours inter-trial interval) was 60.0%. It also gave a minimal effective dose ([2]; normal mice, summary, read-out: minimal effective dose, increases episodic memory and consolidates episodic memory trace) of 10 mg/kg, a minimal effective dose ([2]; p.o. 1 hour before acquisition and retention sessions, 24 hours inter-trial interval, read-out: dose from which memory performance increased significantly) of at least 10 mg/kg and a minimal effective dose ([2]; p.o. once immediately after the acquisition phase, read-out: minimal effective dose, consolidation of episodic memory) of 10 mg/kg. The “recognition index (RI)” value ([2]; normal mice of the scopolamine experiment, 10 mg/kg p.o. 1 hour before acquisition, 3 hours inter-trial interval) was 61.7%, the “recognition index (RI)” value ([2]; normal mice of the scopolamine experiment, 30 mg/kg p.o. 1 hour before acquisition, 3 hours inter-trial interval) was 59.7% and the “in vivo 10 mg/kg, % phosphorylation against vehicle” value (“in vivo 10 mg/kg, % phosphorylation” below) [3] was 58.14** %.

In the case of `Cn1c(N2CCOC(c3nc(-c4ccccc4)no3)C2)nc(-c2ccncn2)cc1=O` (centres unmarked) [compound 1], the “in vivo 10 mg/kg, % phosphorylation” value [3] is reported as 92.12%.

`Cn1c(N2CCOC(c3noc(-c4ccccc4)n3)C2)nc(-c2ccncn2)cc1=O` (centres unmarked) [compound 2, 1-Methyl-2-[2-(5-phenyl-[1,2,4]oxadiazol-3-yl)-morpholin-4-yl]-1H-[4,4']bipyrimidinyl-6-one] was tested, and the “in vivo 10 mg/kg, % phosphorylation” value [3] was 79.21%.

With `Cn1c(N2CCOC(c3ccc(-c4ccoc4)cc3)C2)nc(-c2ccncn2)cc1=O` (centres unmarked) [compound 3, 2-[2-(4-Furan-3-yl-phenyl)-morpholin-4-yl]-1-methyl-1H-[4,4']bipyrimidinyl-6-one] the “in vivo 10 mg/kg, % phosphorylation” value [3] was 71.44%.

With `Cn1ccnc1-c1ccc(C2CN(c3nc(-c4ccncn4)cc(=O)n3C)CCO2)cc1` (centres unmarked) [compound 4, 1-Methyl-2-{2-[4-(1-methyl-1H-imidazol-2-yl)-phenyl]-morpholin-4-yl}-1H-[4,4']bipyrimidinyl-6-one] the “in vivo 10 mg/kg, % phosphorylation” value [3] was 71.21%.

In the case of `Cn1c(N2CCOC(c3ccc(-n4cccn4)cc3)C2)nc(-c2ccncn2)cc1=O` (centres unmarked) [compound 5, 1-Methyl-2-[2-(4-pyrazol-1-yl-phenyl)-morpholin-4-yl]-1H-[4,4']bipyrimidinyl-6-one], the “in vivo 10 mg/kg, % phosphorylation” value [3] is reported as 53.35** %.

Reference: patent publication EP2078717A1, “6-Pyrimidinyl-pyrimid-2-one derivative” (sanofi-aventis, priority 2008, dated 2009)
